# Reference: US6492382B1, “Dried or frozen pharmaceutical preparation containing a class III antiarrhythmic compound” (AstraZeneca AB, priority 1998, dated 2002)
# Entries after “also recorded” stand apart in the source; their conditions may differ.
# What was measured:
# [1] = stability in water solution; assay type: physicochemical; conditions: decomposition especially at a low pH
# [2] = solubility in water; assay type: physicochemical
# [3] = administered intravenously to a human patient; average; cited from earlier work
Compound,stability in water solutions [1],solubility in water [2],half-life of elimination [3]
"CC(C)(C)OC(=O)N1CC2CC(CN(C[C@H](O)COc3ccc(C#N)cc3)C2)C1 [Compound A, 3,7-diazabicyclo[3.3.1]-nonane-3-carboxylic acid, 7-[(2S)-3-(4-cyanophenoxy)-2-hydroxypropyl]-1,1-dimethylethyl ester]",unstable in water solutions; also recorded: decomposition in water solution,poorly soluble in water; also recorded: low water solubility,–
CCCCCCCN(CC)CCCC(O)c1ccc(NS(C)(=O)=O)cc1 (stereo not drawn) [ibutilide],–,–,around 6 hours
